Reference: ChEMBL document CHEMBL1641552 (Bioorg Med Chem Lett, 2011)

Experiments:
Neuraminidase [1] = target: T1, Neuraminidase (Influenza A virus, UniProt B4URF0); experiment: Inhibition of Influenza A H1N1 virus neuraminidase activity after 2 hrs by spectrofluorometry
Neuraminidase [2] = target: T1, Neuraminidase; experiment: Noncompetitive inhibition of Influenza A H1N1 virus neuraminidase activity by Lineweaver-Burk plot analysis
Sialidase = target: T2, Sialidase (Clostridium perfringens, UniProt P10481); experiment: Inhibition of Clostridium perfringens neuraminidase
T2 sequence (P10481 whole entry): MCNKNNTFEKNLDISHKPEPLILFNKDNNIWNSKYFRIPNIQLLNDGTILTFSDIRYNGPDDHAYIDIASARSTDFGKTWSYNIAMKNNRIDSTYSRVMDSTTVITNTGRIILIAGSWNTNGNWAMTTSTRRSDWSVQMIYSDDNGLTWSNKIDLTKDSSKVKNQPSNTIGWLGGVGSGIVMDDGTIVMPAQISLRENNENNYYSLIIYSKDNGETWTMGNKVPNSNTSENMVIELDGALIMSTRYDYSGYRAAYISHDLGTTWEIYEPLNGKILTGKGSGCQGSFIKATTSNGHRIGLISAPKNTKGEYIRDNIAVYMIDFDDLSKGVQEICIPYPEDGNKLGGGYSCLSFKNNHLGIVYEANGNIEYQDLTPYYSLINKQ

Neuraminidase [3] = target: T1, Neuraminidase; experiment: Inhibition of Influenza A H9N2 virus neuraminidase activity after 2 hrs by spectrofluorometry
Neuraminidase [4] = target: T1, Neuraminidase; type: cell-based, H1N1 swine influenza virus, HEK-293T

Molecule CC(C)=CCc1cc(/C=C/C(=O)c2ccc(O)cc2O)cc(O)c1O [5'-PRENYLBUTEIN] has an IC50 (Neuraminidase [1]) of 76 µM, an IC50 (Neuraminidase [2]) of 96.3 µM and an IC50 (Sialidase) of 9.25 µM. It also gave an IC50 (Neuraminidase [3]) of 104 µM.
For COc1cc(O)ccc1/C=C/C(=O)c1ccc(O)cc1 [ECHINATIN], the IC50 (Neuraminidase [1]) was 21.5 µM, the IC50 (Neuraminidase [2]) was 30.4 µM and the IC50 (Neuraminidase [3]) was 21.1 µM. The IC50 (Neuraminidase [4]) was 9.21 µM.
O=C(/C=C/c1ccc(O)cc1)c1ccc(O)cc1O [ISOLIQUIRITIGENIN] was tested, and the IC50 (Sialidase) was 44 µM.
Work on CC(C)=CCc1cc(/C=C/C(=O)c2ccc(O)c(CC=C(C)C)c2O)ccc1O [KANZONOL C] yielded an IC50 (Neuraminidase [1]) of 192 µM, an IC50 (Neuraminidase [2]) of 212 µM and an IC50 (Sialidase) of 1.12 µM. The IC50 (Neuraminidase [3]) was 135 µM.
With C=CC(C)(C)c1cc(/C=C/C(=O)c2ccc(O)cc2)c(OC)cc1O [LICOAGROCHACONE A] the IC50 (Neuraminidase [1]) was 56.4 µM, the IC50 (Neuraminidase [2]) was 53.9 µM and the IC50 (Sialidase) was 20.4 µM. For the same molecule, the IC50 (Neuraminidase [3]) was 53.1 µM and the IC50 (Neuraminidase [4]) was 16 µM.
CC(C)=CCc1cc(/C=C/C(=O)c2ccc(O)cc2O)ccc1O [LICOAGROCHALCONE A] showed an IC50 (Neuraminidase [1]) of 159 µM, an IC50 (Neuraminidase [2]) of 185 µM and an IC50 (Sialidase) of 1.6 µM. It also gave an IC50 (Neuraminidase [3]) of 175 µM.
COc1c(/C=C/C(=O)c2ccc(O)c(CC=C(C)C)c2)ccc(O)c1O [LICOCHALCONE D] gave an IC50 (Neuraminidase [1]) of 80.8 µM, an IC50 (Neuraminidase [2]) of 103 µM and an IC50 (Sialidase) of 3.33 µM. For the same molecule, the IC50 (Neuraminidase [3]) was 99.4 µM.
C=CC(C)(C)c1cc(/C=C/C(=O)c2ccc(O)cc2O)c(OC)cc1O [LICOCHALCONE G] showed an IC50 (Neuraminidase [1]) of 106 µM, an IC50 (Neuraminidase [2]) of 117 µM and an IC50 (Sialidase) of 2.37 µM. It also gave an IC50 (Neuraminidase [3]) of 119 µM.
